According to patent publication US20210386756A1, “IMPROVEMENTS FOR PERFORMING AND FACILITATING THE RECOVERY AFTER HEMATOPOIETIC STEM CELL TRANSPLANTATION” (Centro de Investigaciones Energéticas, Medioambientales y …, priority 2018, published 2021):

Key:
[1] = tested on: human cord-blood CD34+ cells; assay: Human hematopoietic engraftment in male NSG mice transplanted with 5×10^4 human cord-blood CD34+ cells; format: in vivo, mouse; settings: male NSG, 5×10^4 CD34+, 2 μg daily for four days, mean +/− SEM
Description: Three-four months later, the animals were sacrificed and the human hematopoietic engraftment was analyzed by FACS. Human hematopoietic population was identified as the cells positive for hCD45-APC-Cy7 (Biolegend) and negative for mouse CD45.1-PE (Biolegend). In order to further examine the effect of the estrogen in HSCT, hematopoietic progenitors (hCD34+) and hematopoietic stem cells (hCD34+/hCD38−) were analyzed by FACS inside of the human population in the treated NSG described in Example 1.

[2] = tested on: human cord blood CD34+; assay: Human engraftment in male NSG mice transplanted with a limited CD34+ cell dose (5×10^3); format: in vivo, mouse
Description: FIG. 6A indicates the level of human engraftment, which was raised by E4 administration. […] (Kruskal-Wallis test; P=0.1150, 7-10 mice per group). […] Three-four months later, the animals were sacrificed and the human hematopoietic engraftment was analyzed by FACS. Human hematopoietic population was identified as the cells positive for hCD45-APC-Cy7 (Biolegend) and negative for mouse CD45.1-PE (Biolegend). To determine whether estrogen can improve hematopoietic reconstitution of low number of hematopoietic progenitors, male NSG were irradiated and transplanted with low doses of human cord blood CD34+ (5×103 hCD34+). The human engraftment was analyzed as described in Example 1.

[3] = tested on: human cord blood CD34+; assay: Human engraftment in female NSG mice transplanted with a limited CD34+ cell dose (5×10^3); format: in vivo, mouse; settings: low dose 5×10^3 hCD34+, mean +/− SEM
From the text: FIG. 7A indicates human hematopoietic reconstitution after four months. […] However, in spite of this presence of endogenous estrogens, the human engraftment in female recipients was increased after E2 and more importantly after E4 treatment. FIG. 7B relates the presence of primitive hematopoietic progenitors was higher in the female mice treated with estrogens, which indicated the quality of the reconstitution. (Kruskal-Wallis test; P<0.05, 4 mice per group). […] Three-four months later, the animals were sacrificed and the human hematopoietic engraftment was analyzed by FACS. Human hematopoietic population was identified as the cells positive for hCD45-APC-Cy7 (Biolegend) and negative for mouse CD45.1-PE (Biolegend). To assess whether estrogen can improve hematopoietic reconstitution in female recipients, female NSG were irradiated and transplanted by a low doses of human cord blood CD34^+ (5×10^3 hCD34^+). The human engraftment was analyzed as described in Example 1. […] However, in spite of this presence of endogenous estrogens, the human engraftment in female recipients was increased after E2 and more importantly after E4 treatment.

[4] = tested on: human hematopoietic progenitors (CB-CD34+); assay: LTC-IC human bone marrow-like co-culture (hMSC + hCD34+) and CFU assay; format: cell-based
Description: LTC-IC was established through the co-culture of human bone marrow Mesenchymal Stromal Cells (BM-MSC) and human progenitors (CB-CD34+) to research the positive effects of the estrogens in a human context, such as an in vitro human bone marrow model. LTC-ICs were treated with vehicle or 100 µM of E2 or E4 for a week. […] Cells were plated in methycellulose media with specific hematopoietic cytokines to evaluate the hematopoietic progenitor content. After 14 days, colony forming units (CFU) were counted. Data were normalized to control groups. […] 1×10^5 human mesenchymal stromal cells (hMSC) were seeded in a p6 well and irradiated with 30 Gy next day. The following day, 5×10^4 hCD34^+ were added to the hMSC in LTC-IC media: 75% α-MEM without Phenol Red (Life Technologies), 12.5% Hyclone FBS (GE Healthcare), HS (Life Technologies), β-mercaptoethanol (Life Technologies), 0.5% PS and 1×10^−6 M Hydrocortisone (Sigma-Aldrich). 100 μM of estrogens, dissolved in ethanol, was added to the co-culture for a week, and then the cells were collected and the amount of human hematopoietic progenitors were evaluated in semisolid media supplement with specific hematopoietic cytokines (H4535, StemCell Technologies) plus 8 U/ml hEPO. After fourteen days, colony-forming units (CFU) were evaluated and normalized to the control: […]

[5] = tested on: hCD34+ hematopoietic progenitors; assay: In vitro toxicity of natural estrogens for hematopoietic progenitors (hCD34+ culture, FACS subsets); format: cell-based, human; settings: for toxicity for hematopoietic progenitor subpopulations: 10 nM to 500 μM, in vitro; for % CD34+/CD38− / % HSC / % MLP / % MPP: four days culture
Description: FIG. 9 relates the effect of different concentration of E1, E2, E3 and E4 in human hematopoietic progenitors. Human hematopoietic progenitors were culture in phenol red free media supplemented with 100 ng/mL SCF, 100 ng/ml FLT3L and 100 ng/ml TPO and different concentration of E1, E2, E3 and E4 (from 10 nM to 500 μM). FIG. 9A represents the fold increase of the number of hematopoietic cells after four days in culture. FIG. 9B indicates the total number of primitive hematopoietic progenitors (CD34^+/CD38^−) present in the culture, extrapolated from number of cells and the frequency of this population analyzed by FACS. […] Grey dashed lines point the value of control group, and red dashed lines indicate the initial values at day 0. (Kruskal-Wallis test; P<0.05, data from four independent experiments).
To assess the toxicity of the natural estrogens (E1, E2, E3 and E4) for hematopoietic progenitors, in vitro studies were performed. 5×10^4 hCD34^+ were cultured in a phenol red-free media, X-Vivo 20 (Lonza), in presence of 100 ng/ml SCF, 100 ng/ml FLT3L, 100 ng/ml TPO, 0.5% PS, 1% Glutamax (Thermofisher) and different concentrations of E1, E2, E3 or E4 (from 10 nM to 500 μM). Cell proliferation and immunophenotype of different hematopoietic subsets (CD34^+/CD38^−, HSC [CD34^+/CD38^−/CD45RA^−/CD90^+], Multipotent Progenitors [MPP, CD34^+/CD38^−/CD45RA^−/CD90^−], Multipotent Lymphoid Progenitors [MLP, CD34^+/CD38^−/CD45RA^+] were evaluated at day 0 and four days after culture.

[6] = 100 μM for a week, versus vehicle

| Compound | toxicity for hematopoietic progenitor subpopulations [5] | % CD34+/CD38− ([5]; 10 nM) [%] | % HSC ([5]; 10 nM) [%] | % MLP ([5]; 10 nM) [%] | % MPP ([5]; 10 nM) [%] | % CD34+/CD38− ([5]; 100 nM) [%] | % HSC ([5]; 100 nM) [%] | % MLP ([5]; 100 nM) [%] | % MPP ([5]; 100 nM) [%] | % CD34+/CD38− ([5]; 1 μM) [%] | % HSC ([5]; 1 μM) [%] | % MLP ([5]; 1 μM) [%] | % MPP ([5]; 1 μM) [%] | % CD34+/CD38− ([5]; 10 μM) [%] | % HSC ([5]; 10 μM) [%] | % MLP ([5]; 10 μM) [%] | % MPP ([5]; 10 μM) [%] | % HSC ([5]; 100 μM) [%] | % MLP ([5]; 100 μM) [%] | % MPP ([5]; 100 μM) [%] | further results |
| --- | --- | --- | --- | --- | --- | --- | --- | --- | --- | --- | --- | --- | --- | --- | --- | --- | --- | --- | --- | --- | --- |
| C[C@]12CC[C@@H]3c4ccc(O)cc4CC[C@H]3[C@@H]1CC[C@@H]2O [E2, 17β-estradiol] | more toxic | 11.99 ± 0.99 | 1.52 ± 0.24 | 4.23 ± 0.82 | 4.33 ± 0.33 | 10.74 ± 0.29 | 4.25 ± 2.95 | 3.72 ± 0.31 | 3.20 ± 0.76 | 13.43 ± 0.60 | 1.59 ± 0.15 | 3.98 ± 0.14 | 5.62 ± 0.74 | 17.52 ± 2.19 | 1.86 ± 0.12 | 6.79 ± 1.96 | 4.97 ± 0.23 | 4.50 ± 1.91 | 1.76 ± 0.66 | 7.08 ± 1.80 | Percentage in the human hematopoietic population: hematopoietic stem cells ([1]; hCD34+/hCD38−): 0.52 +/− 0.07 (n = 13) %; Percentage in the human hematopoietic population: hematopoietic progenitors ([1]; hCD34+): 9.35 +/− 0.86 (n = 13) %; Percentage of human hematopoietic reconstitution ([1]; three-four months later): 46.05 +/− 5.98 (n = 13) %; Percentage in the human hematopoietic population: Lymphoid ([1]; CD19+): 82.26 +/− 2.14 (n = 9) %; Percentage in the human hematopoietic population: Myeloid ([1]; CD33+): 8.42 +/− 0.88 (n = 9) %; proportion of engrafted mice (human engraftment above 0.1%) ([2]; 5×10^3 CB-CD34+): 70%; change of the proportion of engrafted mice versus vehicle ([2]; limited HPC dose, engraftment above 0.1%): almost tripled; Percentage of human hematopoietic reconstitution ([2]; low dose 5×103 hCD34+, mean +/− SEM): 2.12 +/− 1.05 (n = 10) %; Percentage of hematopoietic stem cells (hCD34+/hCD38−) in the human hematopoietic population [3]: 0.34 +/− 0.12 (n = 3) %; Percentage of human hematopoietic reconstitution [3]: 23.90 +/− 4.65 (n = 3) %; Normalized human CFU ([4]; 100 μM estrogen for a week, CFU after fourteen days, normalized to control, mean +/− SEM): 1.50 +/− 0.21 (n = 6); number of hematopoietic cells in LTC-IC [4, 6]: reduced; total number of primitive hematopoietic progenitors in LTC-IC [4, 6]: did not change; % CD34+/CD38− ([5]; 100 μM): 14.52 ± 2.88%; % CD34+/CD38− ([5]; 500 μM): 11.93 ± 2.95%; % HSC ([5]; 500 μM): 3.97 ± 2.39%; % MLP ([5]; 500 μM): 1.01 ± 0.24%; % MPP ([5]; 500 μM): 6.96 ± 2.54% |
| C[C@]12CC[C@@H]3c4ccc(O)cc4CC[C@H]3[C@@H]1C[C@@H](O)[C@@H]2O [E3, estriol] | more toxic | 14.77 ± 0.41 | 1.87 ± 0.09 | 4.94 ± 0.70 | 5.75 ± 0.21 | 18.28 ± 1.30 | 2.28 ± 0.03 | 6.46 ± 0.83 | 7.25 ± 0.46 | 14.96 ± 0.57 | 4.94 ± 2.86 | 2.72 ± 2.38 | 5.57 ± 0.12 | 15.89 ± 0.62 | 1.95 ± 0.13 | 5.24 ± 0.65 | 6.18 ± 0.47 | 4.13 | 0.15 | 6.44 | % CD34+/CD38− ([5]; 500 μM): 17.92 ± 2.56%; % HSC ([5]; 500 μM): 3.70 ± 1.51%; % MLP ([5]; 500 μM): 4.73 ± 1.60%; % MPP ([5]; 500 μM): 7.61 ± 2.91% |
| C[C@]12CC[C@@H]3c4ccc(O)cc4CC[C@H]3[C@@H]1CCC2=O [E1, estrone] | more toxic | 12.32 ± 2.72 | 2.19 ± 0.65 | 3.32 ± 1.90 | 4.69 ± 0.88 | 12.91 ± 5.83 | 2.12 ± 0.29 | 4.12 ± 3.56 | 4.37 ± 1.47 | 10.11 ± 2.31 | 2.31 ± 0.45 | 1.80 ± 0.92 | 4.48 ± 1.50 | 10.54 ± 3.34 | 2.25 ± 0.41 | 2.92 ± 2.12 | 3.66 ± 0.89 | 0.67 | 4.46 | 3.86 | % CD34+/CD38− ([5]; 100 μM): 11.02%; % CD34+/CD38− ([5]; 500 μM): 14.80 ± 4.62%; % HSC ([5]; 500 μM): 1.75 ± 0.51%; % MLP ([5]; 500 μM): 4.64 ± 3.09%; % MPP ([5]; 500 μM): 5.87 ± 1.34% |
